The results in this text go back to PubChem BioAssay AID624420 (Sanford-Burnham Center for Chemical Genomics, 2012).

The test system of this data set is Human plasma stability, percent remaining. In words: compound stability in Homo sapiens plasma, ADME assay, biochemical, second set (AID 624420). The note with it: at 1 µM.
`CCCc1nc2c(=O)n(C)c(=O)nc-2n(C)n1`: the plasma stability was found to be 1.52%.
The result for `CCc1oc2ccccc2c1C(=O)c1cc(Br)c(O)c(Br)c1` reads 94.6%.
As to `CN(C)c1oc(-c2ccc(OCc3ccc(Cl)cc3)cc2)nc1C#N`, the plasma stability turned out to be 94.3%.
The result for `O=C1CCCC2=C1C1(CCCC1)N=C(Nc1nc3ccccc3o1)N2` reads 100%.
The result for `O=C(COc1ccccc1Br)NCCc1nc2ccccc2[nH]1` reads 88%.
The result for `O=C(O)CCC(NS(=O)(=O)c1ccc(-c2ccccc2)cc1)C(=O)O` (stereo not given) reads 57%; that for `Cc1ccc(NC(=O)CCC(=O)N/N=C/c2ccc([N+](=O)[O-])o2)cc1C`, 67%.
The compound `Cc1cc(-c2nnc3n2CCCCC3)c(C)n1-c1ccccc1` came in with a plasma stability of 87.9%.
Consider `CCCc1cc(C(=O)N(C2CCCCC2)C2CCCCC2)no1`, for which the plasma stability is 67.4%.
The result for `COc1cccc(-c2nc(-c3ccc(NC(=O)Cc4ccccc4OC)cc3)no2)c1` reads 100%; that for `O=C1NCCCc2c1oc1ccc(O)cc21`, 95.7%; that for `Cc1cc2c(s1)c1cnn(Cc3ccccc3F)c(=O)c1n2C`, 82.8%.
The result for `COc1ccc(N(C(=O)CCl)C(C(=O)NCCc2ccccc2)c2cccs2)cc1Cl` (stereo not given) reads 68.2%.
For `COc1nc(-c2ccccc2)nnc1-c1ccccc1`, the plasma stability turned out to be 100%.
The same measure for `COc1ccc(S(=O)(=O)n2nc(OC(=O)c3ccccc3)cc2N)cc1`: 0.3%; for `Brc1ccc2c(c1)CN1CCCC1=N2`: 100%.
The same measure for `CC(=O)c1ccc(N2CCN(S(=O)(=O)c3ccc4c(c3)CC(=O)N4)CC2)cc1`: 80.6%; for `COc1ccc(C2CC(c3ccccc3)=NN2c2ccc(S(N)(=O)=O)cc2)cc1` (stereo not given): 79.5%.
The result for `O=C(c1ccccn1)N(Cc1cccs1)C1(C(=O)NC2CCCCC2)CCCCC1` reads 96.7%.
Take `CCCn1ncc(CN2CCCC(C(=O)c3cccc(OC(C)C)c3)C2)c1C` (stereo not given): the plasma stability was found to be 100%.
The result for `CCOc1ccc(NC(=S)N2CCC(C(O)(c3ccccc3)c3ccccc3)CC2)cc1` reads 63.7%.
The result for `O=c1c2ccccc2[se]n1-c1ccccc1` reads 100%; that for `COc1ccc(Sc2ccc(NC(=O)c3ccccc3Cl)cc2C#N)cc1`, 91.9%; that for `CCCN(CCC)CCNC(=O)C1CCN(Cc2nc(-c3ccc(Cl)cc3)oc2C)CC1`, 100%.
Compound `Cn1nnnc1Sc1ncnc2scc(-c3ccccc3)c12` gave a plasma stability of 76.8%.
The result for `CCCOc1ccc(-c2nc(OC)c3ccccc3n2)cc1` reads 100%; that for `Cc1cccc(-n2cnc3cc(C(=O)N4CCCCC4)ccc32)c1`, 87%.
The same measure for `Cc1ccccc1N1CCN(c2ncnc3c2cnn3Cc2ccc(Cl)cc2)CC1`: 88.2%.
With `Cc1ccc(S(=O)(=O)C(c2ccccc2)c2c(C)noc2C)cc1` (stereo not given), the plasma stability was found to be 91.9%.
Consider `CCOC(=O)C(C)Oc1cccc2c(=O)n(CC(=O)Nc3ccc4c(c3)OCCO4)ccc12` (stereo not given), for which the plasma stability stood at 37.7%.
With `Cc1nc(SCc2nc3ccccc3[nH]2)c2oc3ccccc3c2n1`, the plasma stability was 88%.
Turning to `Cc1ccc(-n2c(N)c(C#N)c(-c3ccccc3)c(C#N)c2=O)cc1`, the plasma stability came to 99.8%.
The result for `c1ccc(CC2CCN(c3ncnc4sccc34)CC2)cc1` reads 100%; that for `Cc1cc(C)nc(-n2nc(C)c(Sc3ccc(F)cc3)c2N)n1`, 97%.
The same measure for `O=S(=O)(NC1CCCCC1N1CCOCC1)c1ccc(Cl)cc1` (stereo not given): 100%.
The same measure for `O=c1[nH]c2c(s1)C(c1cccnc1)C1C3CCC(C3)C1S2` (stereo not given): 86.8%.
`COc1ccc(CNCc2cccc3ccccc23)cc1` returned a plasma stability of 92.1%.
The same measure for `CN(C)C1=C(Cl)C(=O)N(c2ccc(Cl)c(Cl)c2)C1=O`: 0.83%.
The same measure for `N#C/C(=C\c1ccc([N+](=O)[O-])o1)c1nc2ccccc2[nH]1`: 16.9%; for `COC(=O)c1ccccc1NC(=O)c1ccc(F)cc1`: 80%; for `CSc1nc(-c2ccc(C)cc2)nc(C(Cl)Cl)n1`: 81.9%.
For `COc1ccc(OC)c(S(=O)(=O)Nc2cnc3ccccc3c2)c1`, the plasma stability was found to be 83%.
The result for `Cc1ccc(NS(=O)(=O)c2ccc3c(c2)CCC(=O)N3)cc1C` reads 100%; that for `N#Cc1ccccc1CSc1nc2ncc(Br)cc2[nH]1`, 95.4%; that for `O=C1C2CC=CCC2C(=O)N1c1n[nH]c(-c2ccccc2)n1` (stereo not given), 69.8%.
The same measure for `CC(C)C(=O)NC(c1ccco1)c1ccc2cccnc2c1O` (stereo not given): 100%.
`CCc1nnc(NC(=O)c2ccc(NS(=O)(=O)c3ccccc3)cc2)s1` came in with a plasma stability of 100%.
`Cn1cnc([N+](=O)[O-])c1Sc1ncnc2nc[nH]c12` displayed a plasma stability of 83.2%.
The same measure for `O=S1(=O)Nc2c(ccc3cccnc23)-c2ccccc21`: 100%; for `O=C(O)c1ccc(N2C(=O)/C(=C/c3ccc(-c4ccc([N+](=O)[O-])cc4)o3)C=C2c2ccccc2)cc1`: 87.3%; for `CCCC(=O)Nc1cccc(NC(=O)c2ccccc2Br)c1`: 87.8%.
The result for `C=CCn1c(SCC(=O)c2ccc(O)c(O)c2)nnc1-c1ccccc1OC` reads 100%.
In turn, `CCOc1ccc(-c2nc(-c3ccncc3)no2)cc1OCC` yielded a plasma stability of 100%.
In turn, `C/C=C/Cn1c(SCCCc2ccccc2)nc2c1c(=O)[nH]c(=O)n2C` returned a plasma stability of 98.5%.
Regarding `NC(=O)C1CCN(c2nc(-c3ccc(Br)cc3)cs2)CC1`, the plasma stability came out at 96.8%.
The same measure for `Cc1ccc(N2CCN(S(=O)(=O)N3CCCCC3)CC2)c(C)c1`: 100%; for `Cc1cc(C(=O)CN2C(=O)CCC2=O)c(C)n1Cc1ccccc1`: 84%; for `O=C(CCNS(=O)(=O)c1cccc2nsnc12)N1CCN(c2ccccn2)CC1`: 91.2%.
On to `c1ccc(-c2nnc(N3CCOCC3)nc2-c2ccccc2)cc1`, for which the plasma stability worked out at 100%.
The result for `Cc1ccc(S(=O)(=O)NCc2ccc(C(=O)NCCN(Cc3ccccc3)C(C)C)cc2)cc1` reads 100%.
The result for `CN(C)c1nc(N)nc(CSc2nnnn2-c2cccc3ccccc23)n1` reads 100%; that for `Cc1ccc(S(=O)(=O)n2c(N)nc3ccccc32)cc1`, 95.8%; that for `COc1ccc(OC)c(-c2nnc3n2N=C(c2ccc(OC)c(OC)c2)CS3)c1`, 100%.
Turning to `Brc1cc2c(cc1C1Nc3ccccc3C3C=CCC31)OCO2` (stereo not given), the plasma stability was found to be 97%.
The same measure for `c1ccc2c(Nc3nnc(-c4ccncc4)s3)cccc2c1`: 99.5%.
The same measure for `O=C(CSc1cccc2cccnc12)N1CCCC1`: 99.3%; for `COc1ccc(CSc2nc(C)cc(=O)[nH]2)cc1`: 100%.
The compound `COc1ccc(S(=O)(=O)N2CCN(S(=O)(=O)c3ccc4c(c3)OCCO4)CC2)cc1` displayed a plasma stability of 96.4%.
The same measure for `Cc1cc(C)n(-c2nc(NCCCO)c3c4c(sc3n2)CCCC4)n1`: 88.5%; for `O=C(O)c1cccnc1SCCc1ccccc1`: 88.3%.
The same measure for `CCN1CCN(c2nc3ccccc3nc2C(C#N)C(=O)OC2CCCCC2)CC1` (stereo not given): 100%.
The result for `CC1CCCN(C(C(=O)Nc2ccc3c(c2)OCCO3)c2ccccc2)C1` (stereo not given) reads 100%.
With `O=C(COC(=O)C12CC3CC(CC(C3)C1)C2)NCc1ccco1`, the plasma stability came out at 58.7%.
The result for `Cc1ccc(C)c(NS(=O)(=O)c2cc(C(=O)Nc3ccccc3-c3ccccc3)ccc2Cl)c1` reads 100%; that for `CCCN1CNc2c(c(=O)[nH]c(=S)n2CCc2ccc(OC)c(OC)c2)C1`, 85.1%; that for `Cc1ccnc(NC(=O)CCCOc2cc(=O)n(C)c3ccccc23)c1`, 100%.
The same measure for `O=[N+]([O-])c1ccc(CN2CCOCCOCCN(Cc3ccc([N+](=O)[O-])cc3)CCOCC2)cc1`: 98.3%.
The result for `CC[C@H]1CN2CCc3cc(OC)c(OC)cc3[C@@H]2C[C@@H]1C[C@H]1NCCc2cc(OC)c(OC)cc21` reads 91.5%; that for `Cc1ccc(C)c(OCCn2cc(C(=O)O)c3ccccc32)c1`, 91.6%.
`O=c1[nH]c(SCc2ccc(Cl)cc2)nc2c1CCC2` had a plasma stability of 100%.
Compound `COc1ccc(C2c3c(ncn(CCN4CCOCC4)c3=N)Oc3ccc4ccccc4c32)cc1OC` (stereo not given) displayed a plasma stability of 93.5%.
The result for `Cc1ccc(C(=O)n2c3ccccc3c3ccccc32)cc1` reads 92%; that for `COc1ccccc1N(/N=C1\Sc2ccccc2C1=O)C(C)=O`, 94.1%.
The same measure for `O=C(O)c1ccccc1OCc1ccccc1Br`: 76.7%.
The same measure for `CS(=O)(=O)c1ccc(C(=O)OCC(=O)NC23CC4CC(CC(C4)C2)C3)cc1[N+](=O)[O-]`: 0.07%.
